Calls of active or inactive are those of the source. The rule behind the calls is not given here.
Columns and labels:
Format in all cases: functional, organism-based
Plasmodium falciparum [1] = assay: Antimalarial activity against chloroquine-resistant Plasmodium falciparum W2 after 72 hr by […] assay; settings: W2, 72 h
Plasmodium falciparum [2] = assay: Antimalarial activity against chloroquine-sensitive Plasmodium falciparum D6 after 72 hr by […] assay; settings: D6, 72 h
Leishmania donovani = assay: Antileishmanial activity against promastigotes of Leishmania donovani expressing firefly luciferase after 72 hr by luciferase assay
Staphylococcus aureus = assay: Antimicrobial activity against methicillin-resistant Staphylococcus aureus
Aspergillus fumigatus = assay: Antimicrobial activity against Aspergillus fumigatus
Cryptococcus neoformans = assay: Antimicrobial activity against Cryptococcus neoformans
Escherichia coli = assay: Antimicrobial activity against Escherichia coli
[3] = tested on: Mycobacterium intracellulare; assay: Antimicrobial activity against Mycobacterium intracellulare
Candida albicans = assay: Antimicrobial activity against Candida albicans

IC90 (Leishmania donovani) [µM] | Structure (SMILES) | IC50 (Plasmodium falciparum [1]) [µM] | IC50 (Plasmodium falciparum [2]) [µM] | Activity (Staphylococcus aureus) | IC50 (Leishmania donovani) [µM] | Activity (Aspergillus fumigatus) | Activity (Cryptococcus neoformans) | Activity (Escherichia coli) | Activity [3] | Activity (Candida albicans)
 | CCOC(=O)Cc1ccc(Cc2cn(Cc3ccccc3)cn2)cc1 | 6.3 | 8 |  |  |  |  |  |  | 
2.5 | C[C@@H]1[C@H](O)[C@@H](C)/C=C/C=C/C=C/C=C/C=C/C=C/C=C/[C@H](O[C@@H]2O[C@H](C)[C@@H](O)[C@H](N)[C@@H]2O)C[C@@H]2O[C@](O)(C[C@@H](O)C[C@@H](O)[C@H](O)CC[C@@H](O)C[C@@H](O)CC(=O)O[C@H]1C)C[C@H](O)[C@H]2C(=O)O [AMPHOTERICIN B] |  |  |  |  |  |  |  |  | 
 | CCOC(=O)C(=O)Nc1cc(Cc2ccc(CC)cc2)cc(NC(=O)Cc2ccc(Cc3cn(Cc4ccccc4)cn3)cc2)c1 | 5.5 | 6.5 | inactive | 41 | inactive | inactive | inactive | inactive | inactive
134 | CCc1ccc(Cc2cc(N)cc(N)c2)cc1 |  |  |  | 69 |  |  |  |  | 
